What was measured:
BI-2493 [1] = compound: T1, C[C@H]1CNCCN1c1nccc(-c2noc3c2CCC[C@@]32CCCc3sc(N)c(C#N)c32)n1 [BI-2493]; details: 5 days
Procedure: (§1)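 PRISM pooled barcoded cancer cell line viability screen (Broad Institute) with BI-2493 at 8 doses in threefold dilutions from 0.00457 to 10 µmol/L, 5-day treatment; curves fitted per cell line. IC50 is undefined (placeholder) for resistant lines. AUC is capped at 1, and sensitivity is reported as 1 − AUC.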

BI-2493 [2] = compound: T1, BI-2493; assay: 1 - AUC of viability dose-response curve (sensitivity) (fraction); higher = more sensitive; details: 5 days
Procedure: as §1

Row | Test System | IC50 of cell viability (BI-2493 [1]) | 1 - AUC of viability dose-response curve (BI-2493 [2])
1 | TC106_BONE | 5.11 µM | 0.108
2 | TC205_BONE | > 10 µM | 0.082
3 | TCCPAN2_PANCREAS | 8.86 µM | 0.0795
4 | TCCSUP_URINARY_TRACT | 9.48 µM | 0.0247
5 | TE1_OESOPHAGUS | 9.58 µM | 0.0344
6 | TE4_OESOPHAGUS | 4.83 µM | 0.0912
7 | TE5_OESOPHAGUS | 9.08 µM | 0.0423
8 | TE6_OESOPHAGUS | 4.43 µM | 0.0969
9 | TE8_OESOPHAGUS | > 10 µM | 0.0526
10 | TE9_OESOPHAGUS | 5.83 µM | 0.107
11 | TE10_OESOPHAGUS | > 10 µM | 0.146
12 | TE11_OESOPHAGUS | 4.31 µM | 0.102
13 | TE14_OESOPHAGUS | 9.66 µM | 0.00721
14 | TE15_OESOPHAGUS | 0.153 µM | 0.381
15 | TE617T_SOFT_TISSUE | 3.75 µM | 0.193
16 | TEN_ENDOMETRIUM | 9.58 µM | 0.00891
17 | TF1_HAEMATOPOIETIC_AND_LYMPHOID_TISSUE | 0.352 µM | 0.427
18 | TFK1_BILIARY_TRACT | 2.89 µM | 0.173
19 | TGBC1TKB_BILIARY_TRACT | 7.28 µM | 0.0559
20 | TGBC18TKB_LARGE_INTESTINE | 9.22 µM | 0.103
21 | TGBC52TKB_BILIARY_TRACT | 1.47 µM | 0.255
22 | TGW_AUTONOMIC_GANGLIA | 4.67 µM | 0.123
23 | TM31_CENTRAL_NERVOUS_SYSTEM | 8.57 µM | 0.0846
24 | TM87_SOFT_TISSUE | 5.06 µM | 0.26
25 | TOV21G_OVARY | 5.42 µM | 0.114

Row | Test System | IC50 of cell viability (BI-2493 [1]) | 1 - AUC of viability dose-response curve (BI-2493 [2])
26 | TT1TKB_LARGE_INTESTINE | 1.08 µM | 0.312
27 | TT2609C02_THYROID | > 10 µM | 0.00366
28 | TTC442_SOFT_TISSUE | 5.84 µM | 0.0621
29 | TTC549_SOFT_TISSUE | 5.34 µM | 0.113
30 | TTC642_SOFT_TISSUE | 7.08 µM | 0.0875
31 | TTC709_SOFT_TISSUE | 4.96 µM | 0.16
32 | TT_OESOPHAGUS | 5.9 µM | 0.191
33 | TT_THYROID | 6.45 µM | 0.0835
34 | TUHR4TKB_KIDNEY | 3.62 µM | 0.123
35 | TYKNU_OVARY | 9.48 µM | 0.0105
36 | U2OS_BONE | > 10 µM | 0.215
37 | U87MG_CENTRAL_NERVOUS_SYSTEM | > 10 µM | 0.111
38 | U118MG_CENTRAL_NERVOUS_SYSTEM | 6.46 µM | 0.0721
39 | U178_CENTRAL_NERVOUS_SYSTEM | 7.8 µM | 0.139
40 | U266B1_HAEMATOPOIETIC_AND_LYMPHOID_TISSUE | 7.47 µM | 0.0732
41 | U343_CENTRAL_NERVOUS_SYSTEM | 6.54 µM | 0.0705
42 | U937_HAEMATOPOIETIC_AND_LYMPHOID_TISSUE | 3.77 µM | 0.17
43 | U2904_HAEMATOPOIETIC_AND_LYMPHOID_TISSUE | 9.63 µM | 0.0108
44 | U2973_HAEMATOPOIETIC_AND_LYMPHOID_TISSUE | 0.921 µM | 0.33
45 | UACC62_SKIN | 9.21 µM | 0.0436
46 | UACC257_SKIN | 7.78 µM | 0.0407
47 | UBLC1_URINARY_TRACT | 4.3 µM | 0.137
48 | UMRC3_KIDNEY | 4.74 µM | 0.106
49 | UMRC7_KIDNEY | 6.09 µM | 0.0724
50 | UMUC1_URINARY_TRACT | 2.29 µM | 0.226

Row | Test System | IC50 of cell viability (BI-2493 [1]) | 1 - AUC of viability dose-response curve (BI-2493 [2])
51 | UMUC5_URINARY_TRACT | 7.6 µM | 0.0622
52 | UMUC7_URINARY_TRACT | > 10 µM | 0.14
53 | UMUC10_URINARY_TRACT | 9.49 µM | 0.0119
54 | UMUC11_URINARY_TRACT | 6.87 µM | 0.101
55 | UO31_KIDNEY | 9.54 µM | 0.0602
56 | UPCISCC072_UPPER_AERODIGESTIVE_TRACT | 8.57 µM | 0.0294
57 | UPCISCC111_UPPER_AERODIGESTIVE_TRACT | 4.12 µM | 0.158
58 | UPCISCC116_UPPER_AERODIGESTIVE_TRACT | 5.74 µM | 0.118
59 | UW228_CENTRAL_NERVOUS_SYSTEM | 4.79 µM | 0.0946
60 | VAESBJ_SOFT_TISSUE | 9.61 µM | 0.00971
61 | VAL_HAEMATOPOIETIC_AND_LYMPHOID_TISSUE | 3.46 µM | 0.136
62 | VMCUB1_URINARY_TRACT | 3.76 µM | 0.15
63 | VMRCRCW_KIDNEY | 5.59 µM | 0.0854
64 | VMRCRCZ_KIDNEY | 6.92 µM | 0.0774
65 | WAOSEL_HAEMATOPOIETIC_AND_LYMPHOID_TISSUE | 9.74 µM | 0.00836
66 | WERIRB1_AUTONOMIC_GANGLIA | 9.33 µM | 0.052
67 | WM88_SKIN | 8.79 µM | 0.0214
68 | WM793_SKIN | 5.47 µM | 0.0739
69 | WM983B_SKIN | 7.98 µM | 0.038
70 | WM2664_SKIN | 9.22 µM | 0.0151
71 | WSUDLCL2_HAEMATOPOIETIC_AND_LYMPHOID_TISSUE | 4.99 µM | 0.156
72 | YAPC_PANCREAS | 2.97 µM | 0.287
73 | YD8_UPPER_AERODIGESTIVE_TRACT | > 10 µM | 0.0906
74 | YD10B_UPPER_AERODIGESTIVE_TRACT | 5.08 µM | 0.0787
